Test in all cases: relative viability (nuclei count vs DMSO), 5 days (fraction); higher = more cells survive
Compound in the assay “Obatoclax + Luminespib”: COC1=CC(c2cc3ccccc3[nH]2)=N/C1=C\c1[nH]c(C)cc1C [Obatoclax] + CCNC(=O)c1noc(-c2cc(C(C)C)c(O)cc2O)c1-c1ccc(CN2CCOCC2)cc1 [Luminespib] (partner 0.01 µM)
The procedure, abridged: (§1)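 Lung cancer cell lines in 1536-well plates got either a single drug or a fixed anchor-drug dose together with five library-drug doses (not always all listed) in √10 steps, by pin tool, on the day after seeding. Nuclei were counted after 5 days, and relative viability is the treated-to-vehicle ratio of nuclei counts. Values are medians of duplicate plates.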

Compound in the assay “Obatoclax + Linsitinib”: COC1=CC(c2cc3ccccc3[nH]2)=N/C1=C\c1[nH]c(C)cc1C [Obatoclax] + C[C@]1(O)C[C@@H](c2nc(-c3ccc4ccc(-c5ccccc5)nc4c3)c3c(N)nccn32)C1 [Linsitinib] (partner 1 µM)
The procedure, abridged: as §1

Compound in assay [1]: CC1=CC(=NN1)NC2=CC(=NC(=N2)/C=C/C3=CC=CC=C3)N4CCN(CC4)C + COc1cccc2cc(-c3nc([C@H]4CC[C@H](C(=O)O)CC4)n4ncnc(N)c34)[nH]c12 [OSI-027] (partner 0.5 µM)
A digest of the protocol:
as §1

Compound in the assay “Obatoclax + Pemetrexed”: COC1=CC(c2cc3ccccc3[nH]2)=N/C1=C\c1[nH]c(C)cc1C [Obatoclax] + Nc1nc2[nH]cc(CCc3ccc(C(=O)N[C@@H](CCC(=O)O)C(=O)O)cc3)c2c(=O)[nH]1 [Pemetrexed] (partner 0.2 µM)
The procedure, abridged:
as §1

As for NCI-H650, the relative viability was found to be 0.712 with Obatoclax + Luminespib (first compound 0.01 µM); 0.802 with Obatoclax + Luminespib (first compound 0.03162 µM); 0.44 with Obatoclax + Luminespib (first compound 0.3162 µM); 0.305 with Obatoclax + Luminespib (first compound 1 µM); 0.874 in the assay with Obatoclax + Linsitinib (first compound 0.01 µM); 0.757 with Obatoclax + Linsitinib (first compound 0.03162 µM). Also, the relative viability with Obatoclax + Linsitinib (first compound 0.1 µM) stood at 0.329; with Obatoclax + Linsitinib (first compound 0.3162 µM) it was 0.528; with Obatoclax + Linsitinib (first compound 1 µM), 0.425; in assay [1] (first compound 0.253 µM), 0.597; in assay [1] (first compound 0.8 µM), 0.575; in assay [1] (first compound 2.53 µM) it was 0.47. The relative viability in assay [1] (first compound 8 µM) was 0.172; with Obatoclax + Pemetrexed (first compound 0.01 µM) it was 1.01; with Obatoclax + Pemetrexed (first compound 0.03162 µM) it was 0.86; with Obatoclax + Pemetrexed (first compound 0.3162 µM), 0.944; with Obatoclax + Pemetrexed (first compound 1 µM), 0.443.

The record behind these values is the supplement of paper PMC10307832.
